# US20170190705A1, “Compositions and Methods for Inhibiting BMP” (THE BRIGHAM AND WOMAN'S HOSPITAL, INC., priority 2014, published 2017)
# Read-outs that look alike come from different tables or passages of the source.
# Key:
# caALK4 = target: T1, caALK4 (Homo sapiens, UniProt P36896); assay: Luciferase reporter assay constitutively active ALK4; conditions: read-out: Cell Based Assay caALK4 IC50
# T1 sequence (P36896 1-505 T206D): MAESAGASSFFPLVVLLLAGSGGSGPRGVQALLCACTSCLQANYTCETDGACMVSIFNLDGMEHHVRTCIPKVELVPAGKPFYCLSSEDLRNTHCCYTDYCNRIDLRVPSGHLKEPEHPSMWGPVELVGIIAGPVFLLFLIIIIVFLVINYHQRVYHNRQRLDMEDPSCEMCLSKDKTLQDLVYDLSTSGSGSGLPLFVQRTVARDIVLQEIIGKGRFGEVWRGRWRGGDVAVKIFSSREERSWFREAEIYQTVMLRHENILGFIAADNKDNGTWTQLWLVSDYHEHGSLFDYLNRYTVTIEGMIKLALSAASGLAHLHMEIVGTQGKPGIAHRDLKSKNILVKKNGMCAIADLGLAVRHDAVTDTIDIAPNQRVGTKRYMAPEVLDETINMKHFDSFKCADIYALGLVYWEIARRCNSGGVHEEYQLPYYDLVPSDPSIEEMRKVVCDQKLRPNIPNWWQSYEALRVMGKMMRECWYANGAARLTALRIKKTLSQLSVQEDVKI
# From the text: C2Cl2 […] cells stably transfected with BMP responsive element from the Id promoter fused to luciferase reporter gene (BRE-Luc) were generously provided by Dr. Peter ten Dijke (Leiden University Medical Center, NL) following the methods described by Zilberberg et al., BMC cell biology 2007, 8, 41-50. Human embryonic kidney 293T cells stably transfected with the TGF-β responsive element from the PAI-1 promoter fused to luciferase reporter gene (CAGA-Luc) were generously provided by Dr. Howard Weiner (Brigham and Women's Hospital, Boston, Mass.) following the methods described by Oida et al., PloS one 2011, 6, e18365. C2Cl2 Bre-Luc and 293T CAGA-Luc cells were seeded in DMEM supplemented with 2% FBS at 20,000 cells per well in tissue culture treated 96-well plates (Costar® 3610; Corning). The cells were incubated for 1 h (37° C. and 10% CO2) and allowed to settle and attach. Compounds of interest or DMSO were diluted in DMEM and added at final compound concentrations of 1 nM to 10 μM. Cells were then incubated for 30 min. Adenovirus expressing constitutively active BMP and TGF-β type I receptors (Ad.caALK1-5), generously provided by Dr. Akiko Hata (University of to California at San Francisco), were added to achieve a multiplicity of infection (MOI) of 100. Plates were incubated overnight at 37° C. Cell viability was assayed with an MIT (3-(4,5-dimethylthiazol-2-yl)-2,5-diphenyl tetrazolium bromide) colorimetric assay (Promega) per the manufacturer's instructions. Media was discarded, and firefly luciferase activity was measured (Promega) according to manufacturer's protocol. Light output was measured using a Spectramax L luminometer (Molecular Devices) with an integration time of one second per well. Data was normalized to 100% of incremental BRE-Luc activity due to adenoviruses specifying caALK1, 2, or 3, or the incremental CAGA-Luc activity due to adenoviruses specifying caALK4 or 5.
# PKC-β1 = PKC-β1 (Homo sapiens, UniProt P05771); assay: Kinome profiling PKC-β1; assay type: biochemical; conditions: read-out: Inhibitory activity PKC-β1; for inhibition at 0.1 µM: 100 nM
# Procedure: (§1) . The kinome-wide selectivity was determined following the methods previously reported by Mohedas et al., ACS Chem Biol 2013, 8, 1291-1302 and Sanvitale et al., PLoS One 2013, 8, e62721.
# RSK1 = RSK1 (Homo sapiens, UniProt Q15418); assay: Kinome profiling RSK1; assay type: biochemical; conditions: read-out: Inhibitory activity RSK1; for inhibition at 0.1 µM: 100 nM
# Procedure: as §1
# HCK = HCK (Homo sapiens, UniProt P08631); assay: Kinome profiling HCK; assay type: biochemical; conditions: read-out: Inhibitory activity HCK; for inhibition at 0.1 µM: 100 nM
# Procedure: as §1
# [1] = system: HePG2 hepatocarcinoma cells; assay type: cell-based; conditions: human
# Procedure: The cells were incubated for 2 h (37° C. and 5% CO2) and allowed to settle and attach. Compounds of interest or DMSO were diluted in DMEM and added at final compound concentrations of 1 μM, 10 μM, and 100 μM. Cells were incubated for 4 hours and 24 hours after which the media was discarded. Cells were lysed by adding 30 μL of passive lysis buffer (Promega) and shaken at RT for 15 min. Cell viability was determined by quantifying the ATP present in each well by adding 10 μL of CellTiter-Glo (Promega) per well and measuring the light output Spectramax L luminometer (Molecular Devices) with an integration time of one second per well. Data was normalized to 100% viability for cells receiving only DMSO without any concurrent compound.
# PAK1 = PAK1 (Homo sapiens, UniProt Q13153); assay: Kinome profiling PAK1; assay type: biochemical; conditions: read-out: Inhibitory activity PAK1; for inhibition at 0.1 µM: 100 nM
# Procedure: as §1
# PRAK = target: T2, PRAK (Homo sapiens, UniProt Q8IW41); assay: Kinome profiling PRAK; assay type: biochemical; conditions: read-out: Inhibitory activity PRAK; for inhibition at 0.1 µM: 100 nM
# T2 sequence (Q8IW41 1-473): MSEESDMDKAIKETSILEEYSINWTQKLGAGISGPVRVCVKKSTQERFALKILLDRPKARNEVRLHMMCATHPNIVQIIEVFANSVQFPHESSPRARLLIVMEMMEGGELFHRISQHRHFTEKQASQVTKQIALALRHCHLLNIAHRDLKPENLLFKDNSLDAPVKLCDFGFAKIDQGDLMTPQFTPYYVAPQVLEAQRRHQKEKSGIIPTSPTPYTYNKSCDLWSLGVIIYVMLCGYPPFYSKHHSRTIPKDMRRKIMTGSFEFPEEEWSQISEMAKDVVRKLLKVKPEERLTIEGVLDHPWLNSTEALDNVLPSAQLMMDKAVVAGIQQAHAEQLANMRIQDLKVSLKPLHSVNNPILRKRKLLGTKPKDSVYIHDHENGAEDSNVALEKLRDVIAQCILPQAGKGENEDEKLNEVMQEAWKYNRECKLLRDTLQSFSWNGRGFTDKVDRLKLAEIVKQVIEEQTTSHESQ
# Procedure: as §1
# HCK, sequence (P08631 whole entry): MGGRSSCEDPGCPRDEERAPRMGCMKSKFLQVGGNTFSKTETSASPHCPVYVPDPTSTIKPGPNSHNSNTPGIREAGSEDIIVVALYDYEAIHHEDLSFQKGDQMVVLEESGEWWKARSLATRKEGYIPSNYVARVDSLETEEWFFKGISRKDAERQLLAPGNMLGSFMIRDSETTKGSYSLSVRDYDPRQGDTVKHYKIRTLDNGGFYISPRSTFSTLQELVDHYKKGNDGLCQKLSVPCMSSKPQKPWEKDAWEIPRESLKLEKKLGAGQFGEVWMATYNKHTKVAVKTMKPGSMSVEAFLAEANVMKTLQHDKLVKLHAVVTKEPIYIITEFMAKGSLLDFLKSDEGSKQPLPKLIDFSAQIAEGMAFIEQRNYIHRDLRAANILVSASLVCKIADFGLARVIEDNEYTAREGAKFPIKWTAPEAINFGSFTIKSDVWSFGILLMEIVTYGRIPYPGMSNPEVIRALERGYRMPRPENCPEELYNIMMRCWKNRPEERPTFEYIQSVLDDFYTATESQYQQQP
# PAK1, sequence (Q13153 whole entry): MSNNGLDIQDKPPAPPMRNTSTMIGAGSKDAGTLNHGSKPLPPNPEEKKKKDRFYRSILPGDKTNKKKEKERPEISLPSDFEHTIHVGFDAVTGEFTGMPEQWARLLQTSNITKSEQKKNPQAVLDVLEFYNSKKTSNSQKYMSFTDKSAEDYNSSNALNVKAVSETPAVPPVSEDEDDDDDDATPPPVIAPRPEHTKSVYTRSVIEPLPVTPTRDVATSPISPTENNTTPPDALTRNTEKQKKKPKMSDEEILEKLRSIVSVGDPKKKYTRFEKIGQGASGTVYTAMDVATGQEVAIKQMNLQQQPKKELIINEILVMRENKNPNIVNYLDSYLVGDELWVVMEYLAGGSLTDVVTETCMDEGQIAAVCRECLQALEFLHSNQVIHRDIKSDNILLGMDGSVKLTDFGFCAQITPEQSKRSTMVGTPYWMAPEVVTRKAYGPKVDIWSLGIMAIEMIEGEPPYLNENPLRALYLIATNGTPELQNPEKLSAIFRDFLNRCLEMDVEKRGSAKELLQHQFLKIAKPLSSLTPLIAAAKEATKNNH
# RSK1, sequence (Q15418 whole entry): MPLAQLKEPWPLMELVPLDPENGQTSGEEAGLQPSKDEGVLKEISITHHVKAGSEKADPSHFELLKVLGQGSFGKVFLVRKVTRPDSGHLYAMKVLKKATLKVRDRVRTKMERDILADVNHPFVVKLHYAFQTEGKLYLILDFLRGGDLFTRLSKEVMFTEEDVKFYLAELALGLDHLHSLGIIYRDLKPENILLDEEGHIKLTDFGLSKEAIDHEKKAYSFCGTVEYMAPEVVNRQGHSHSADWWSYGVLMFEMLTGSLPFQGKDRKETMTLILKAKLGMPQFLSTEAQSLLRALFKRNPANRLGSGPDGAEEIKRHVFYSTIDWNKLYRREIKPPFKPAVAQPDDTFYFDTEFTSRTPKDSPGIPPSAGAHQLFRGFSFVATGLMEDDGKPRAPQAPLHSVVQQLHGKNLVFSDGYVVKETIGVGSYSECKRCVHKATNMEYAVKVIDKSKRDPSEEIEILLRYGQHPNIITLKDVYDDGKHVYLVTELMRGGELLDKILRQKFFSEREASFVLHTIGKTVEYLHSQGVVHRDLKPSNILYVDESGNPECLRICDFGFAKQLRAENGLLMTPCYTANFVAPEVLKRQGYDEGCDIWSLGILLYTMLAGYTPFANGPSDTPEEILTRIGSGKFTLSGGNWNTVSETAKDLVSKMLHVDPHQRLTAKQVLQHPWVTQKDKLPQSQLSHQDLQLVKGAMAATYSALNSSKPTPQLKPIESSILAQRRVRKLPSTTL
# PKC-β1, sequence (P05771 whole entry): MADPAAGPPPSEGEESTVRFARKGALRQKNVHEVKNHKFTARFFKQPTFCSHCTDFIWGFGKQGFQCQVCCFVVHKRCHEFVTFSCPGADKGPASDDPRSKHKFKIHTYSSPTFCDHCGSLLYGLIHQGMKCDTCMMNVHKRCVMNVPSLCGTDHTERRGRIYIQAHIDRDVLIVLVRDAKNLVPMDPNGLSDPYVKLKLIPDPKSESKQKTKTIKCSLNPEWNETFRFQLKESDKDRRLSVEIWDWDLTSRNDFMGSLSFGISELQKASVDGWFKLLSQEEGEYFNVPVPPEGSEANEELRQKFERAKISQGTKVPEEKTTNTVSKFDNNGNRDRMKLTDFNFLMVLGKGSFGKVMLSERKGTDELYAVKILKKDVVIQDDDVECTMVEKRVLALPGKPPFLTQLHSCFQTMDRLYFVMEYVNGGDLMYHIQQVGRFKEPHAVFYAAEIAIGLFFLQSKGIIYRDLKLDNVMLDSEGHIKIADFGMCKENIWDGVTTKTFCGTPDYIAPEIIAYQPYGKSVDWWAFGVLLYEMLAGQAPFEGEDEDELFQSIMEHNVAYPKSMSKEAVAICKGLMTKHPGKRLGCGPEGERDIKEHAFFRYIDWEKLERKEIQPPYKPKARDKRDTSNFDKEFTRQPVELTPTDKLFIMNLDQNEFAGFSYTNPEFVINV
SMILES,IC50 (caALK4) [nM],inhibition at 0.1 µM (PKC-β1) [%],inhibition at 1 µM (PKC-β1) [%],inhibition at 0.1 µM (RSK1) [%],inhibition at 1 µM (RSK1) [%],inhibition at 0.1 µM (HCK) [%],inhibition at 1 µM (HCK) [%],"Cell viability ([1]; 4 h, 1 μM) [%]","Cell viability ([1]; 4 h, 10 μM) [%]","Cell viability ([1]; 4 h, 100 μM) [%]","Cell viability ([1]; 24 h, 1 μM) [%]","Cell viability ([1]; 24 h, 10 μM) [%]","Cell viability ([1]; 24 h, 100 μM) [%]",inhibition at 0.1 µM (PAK1) [%],inhibition at 1 µM (PAK1) [%],inhibition at 0.1 µM (PRAK) [%],inhibition at 1 µM (PRAK) [%]
"COc1cc(-c2cc(-c3ccc(N4CCNCC4)cc3)cnc2C)cc(OC)c1OC [Compound 10, 1-(4-(6-methyl-5-(3,4,5-trimethoxyphenyl)pyridin-3-yl)phenyl)piperazine]",5530,0,1,1,1,3,15,91,100,88,92,78,77,2,3,0,3
"COc1cc(-c2cc(-c3ccc(N4CCNCC4)cc3)cnc2N)cc(OC)c1OC [Compound 15, 5-(4-(piperazin-1-yl)phenyl)-3-(3,4,5-trimethoxyphenyl)pyridin-2-amine]",25,0,0,1,5,41,81,95,103,103,96,96,23,0,6,1,1
